Results from patent US5021569A, “4-azatricyclo[4.3.1.1(3,8)]undecylarylpiperazines with anxiolytic activity” (priority 1990, dated 1991).
Where a name gives a salt, the structure may show the parent alone. Read-outs that look alike come from different tables or passages of the source.

Tests used:
[1] = test system: 5-HT1A receptor; conditions: background literature; cited from earlier work
[2] = molecular target: T1, 5-HT1A serotonin receptor subtype (Rattus norvegicus, UniProt P19327); test: 5-HT1A receptor binding, displacement of 3H-8-OH DPAT (procedure of Hall et al.); conditions: for inhibition at 0.1 µM: read-out: Affinity for 5-HT1A Receptor Sites, % Inhibition at 100 nM; for Ki: Ki calculated from IC50 values, read-out: Affinity for 5-HT1A Receptor Sites, Ki
T1 construct: from tissue
T1 sequence (P19327 1-422): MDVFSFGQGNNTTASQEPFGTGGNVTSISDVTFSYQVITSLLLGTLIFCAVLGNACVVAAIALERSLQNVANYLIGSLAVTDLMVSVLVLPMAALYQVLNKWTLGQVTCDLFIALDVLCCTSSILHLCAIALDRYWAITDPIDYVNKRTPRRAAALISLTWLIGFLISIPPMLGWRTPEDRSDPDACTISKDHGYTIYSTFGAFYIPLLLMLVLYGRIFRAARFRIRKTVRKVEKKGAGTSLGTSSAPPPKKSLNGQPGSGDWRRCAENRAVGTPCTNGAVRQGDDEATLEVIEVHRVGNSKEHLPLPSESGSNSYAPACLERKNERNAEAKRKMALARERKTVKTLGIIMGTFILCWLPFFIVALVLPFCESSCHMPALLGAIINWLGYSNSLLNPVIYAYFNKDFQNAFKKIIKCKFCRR
Source text: The serotoninergic properties of the compounds of this invention were established by the procedure of Hall et al., J. Neurochem.

[3] = molecular target: T2, D2 receptor (Rattus norvegicus, UniProt P61169); test: D2 receptor affinity, reduction of 3H-spiroperidol binding; conditions: read-out: Affinity for D2 Receptor Sites, % Inhibition at 1 μM
T2 construct: from tissue
T2 sequence (P61169 whole entry): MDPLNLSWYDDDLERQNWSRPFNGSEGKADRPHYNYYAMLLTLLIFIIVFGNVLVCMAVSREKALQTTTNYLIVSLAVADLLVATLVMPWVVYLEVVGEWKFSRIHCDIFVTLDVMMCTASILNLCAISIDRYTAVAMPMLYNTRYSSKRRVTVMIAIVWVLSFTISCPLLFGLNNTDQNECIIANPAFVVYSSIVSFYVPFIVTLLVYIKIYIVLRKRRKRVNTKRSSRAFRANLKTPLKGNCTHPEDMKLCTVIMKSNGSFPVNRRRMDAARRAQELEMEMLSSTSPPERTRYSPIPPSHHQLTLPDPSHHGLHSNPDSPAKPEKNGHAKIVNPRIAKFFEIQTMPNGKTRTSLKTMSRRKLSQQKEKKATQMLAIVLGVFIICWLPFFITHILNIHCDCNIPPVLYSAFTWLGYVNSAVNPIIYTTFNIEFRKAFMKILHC
Procedure: The percentage reduction of ^3 H-spiroperidol binding at 1 μM concentration of test compound is reported, infra.

[4] = background, U.S. Pat. No. 4,818,756; cited from earlier work
[5] = 100 nM test compound, 3H-8-OH DPAT
[6] = 1 μM test compound, 3H-spiroperidol

**Q.** Which “binding at the 5-HT1A site (in words)” value [1] does the source give for `O=C1CC2(CCCC2)CC(=O)N1CCCCN1CCN(c2ncccn2)CC1` [Buspirone, 8-[4-[-4-(2-pyrimidinyl)-1-piperazinyl]butyl]-8-azaspiro[4.5]decane-7,9-dione] here?
**A.** demonstrate binding at the 5-HT1A site

**Q.** With `O=C(CCN1CCN(c2cccc(Cl)c2)CC1)N1CC2CC3CC(C2)CC1C3` [Example 1, 1-(4-Azatricyclo[4.3.1.1(3,8)]undec-4-yl)-3-[4-(3-chlorophenyl)-1-piperazinyl]-1-propanone] as the compound, how does the inhibition at 0.1 µM [2, 5] read?
**A.** 78%

**Q.** What about the Ki ([2]; 3H-8-OH DPAT) of the same compound?
**A.** 30 nM

**Q.** And the inhibition at 1 µM [3, 6]?
**A.** 42%

**Q.** For `Clc1cccc(N2CCN(CCCN3CC4CC5CC(C4)CC3C5)CC2)c1` [Example 2, 4-[3-[4-(3-Chlorophenyl)-1-piperazinyl]propyl]-4-azatricyclo[4.3.1.1(3,8)]undecane Dihydrochloride One Third Hydrate], which inhibition at 0.1 µM [2, 5] is on record?
**A.** 47%

**Q.** With `COc1ccccc1N1CCN(CCC(=O)N2CC3CC4CC(C3)CC2C4)CC1` [Example 3, 1-(4-Azatricyclo[4.3.1.1(3,8)]undec-4-yl)-3-[4-(2-methoxyphenyl)-1-piperazinyl]-1-propanone Dihydrochloride Hydrate] as the compound, how does the inhibition at 0.1 µM [2] read?
**A.** 92%

**Q.** What about the inhibition at 1 µM [3] of the same compound?
**A.** 71%

**Q.** With `COc1ccccc1N1CCN(CCCN2CC3CC4CC(C3)CC2C4)CC1` [Example 4, 4-[3-[4-(2-Methoxyphenyl)-1-piperazinyl]propyl]-4-azatricyclo[4.3.1.1(3,8)]undecane Trihydrochloride One Quarter Hydrate] as the compound, how does the inhibition at 0.1 µM [2, 5] read?
**A.** 72%

**Q.** What about the Ki ([2]; 3H-8-OH DPAT) of the same compound?
**A.** 33 nM

**Q.** And the inhibition at 1 µM [3, 6]?
**A.** 14%

**Q.** For `O=C(CCN1CCN(c2ncccn2)CC1)N1CC2CC3CC(C2)CC1C3` [Example 5, 1-(4-Azatricyclo[4.3.1.1(3,8)]undec-4-yl)-3-[4-(2-pyrimidinyl)-1-piperazinyl]-1-propanone], which inhibition at 0.1 µM [2, 5] is on record?
**A.** 46%

**Q.** Which results are given for `O=C1c2ccccc2S(=O)(=O)N1CCCCN1CCN(c2ncccn2)CC1` [TVX Q 7821, 2-[4-[4-(2-pyrimidinyl)-1-piperazinyl]buyl]-1,2-benzisothiazol-3-(2H)one-1,1-dioxide hydrochloride]?
**A.** binding at the 5-HT1A site (in words) [1]: demonstrate binding at the 5-HT1A site; antidepressant activity (in words) [4]: found to possess antidepressant activity

**Q.** For `CCCC(C)C1(CC)C(=O)NC(=O)NC1=O` (centres unmarked) [pentobarbital], which “binding at the 5-HT1A site (in words)” value [1] is on record?
**A.** do not act via the 5-HT1A receptor
